From publication PMC11087525 (Scientific Reports, 2024)
≈ marks a conversion by molar mass, not a printed value. Where “and” joins values, the source holds several entries; their conditions need not be identical. Identical values can stand only once. Like-named read-outs stand apart in the source and are kept apart here.

Tests used:
human neurons [1] = assay: In-vitro drug uptake by human neurons; conditions: for uptake of NMR by neurons (mean ± SD): 24-h incubation
[2] = set-up: method as in earlier work; conditions: cited from earlier work
[3] = cited from earlier work
pericytes [4] = assay: In-vitro drug uptake by human brain pericytes
in vivo [5] = conditions: male, Sprague-Dawley, rat; for Tmax: Average Tmax
[6] = system: Human brain primary astrocytes; assay: In-vitro drug uptake by human brain primary astrocytes
[7] = cited from earlier work; remark: listed apart in the source
[8] = system: SARS-CoV-2 USA_WAI/2020 isolate; conditions: cited from earlier work; for plasma EC90Adjusted concentration: adjusted for plasma protein binding
[9] = cited from earlier work; remark: listed apart in the source
[10] = cited from earlier work; remark: listed apart in the source
[11] = rats
[12] = system: SARS-CoV-2 USA_WAI/2020 isolate
Source text: Therefore, the goal for the CSF was set to achieve the same exposure conditions as for plasma.

in vivo [13] = conditions: male, Sprague-Dawley, rat, Median (IQR), rats
human neurons [14] = system: human neurons
pericytes [15] = conditions: human, 24 h, 1000 ng/mL
[16] = in the presence or absence of RTV
[17] = rats, oral 30 mg/kg NMR + 10 mg/kg RTV twice daily, 5 days
[18] = rats, oral NMR/RTV twice daily, 5 days
[19] = RTV alone, 1000 ng/mL, 24-h incubation

CC(C)(C)[C@H](NC(=O)C(F)(F)F)C(=O)N1C[C@H]2[C@@H]([C@H]1C(=O)N[C@H](C#N)C[C@@H]1CCNC1=O)C2(C)C [NMR, nirmatrelvir]
uptake of NMR by neurons (mean ± SD) (human neurons [1]; NMR alone, 2200 ng/mL): 34.7 ng/mL | uptake of NMR by neurons (mean ± SD) (human neurons [1]; in the presence of RTV (1000 ng/mL), NMR 2200 ng/mL): 122.8 ± 7.8 ng/mL | maximum NMR uptake (uptake/administered) (human neurons [1]; neurons in the presence of RTV, 2200 ng/mL administered): 5.5% | protein bound [2]: 69% | lipophilicity coefficient (LogP) [3]: 1.68 | uptake of NMR by pericytes (pericytes [4]; [16]): < 2% | difference in NMR uptake, NMR alone or with RTV (pericytes [4]; pericytes): No significant differences | Cmax (in vivo [5]): 2480 ng/mL | Kp (in vivo [5]; % Penetration by AUC CSF/Plasma, Median (IQR), rats with CSF sampled): 0.152 | Kp (in vivo [5]; % Penetration by Cmax CSF/Plasma, Median (IQR), rats with CSF sampled): 0.181 | k el (in vivo [5]; po, 30 mg/kg): 6.67e-05 s⁻¹ | AUC (in vivo [5]; po, 30 mg/kg, AUC0-endoftreatment CSF, Median (IQR), rats with CSF sampled): 17600 ng·h/mL | AUC (in vivo [5]; po, 30 mg/kg, AUC0-endoftreatment Plasma, Median (IQR), all rats): 114000 ng·h/mL | AUC (in vivo [5]; po, 30 mg/kg, AUC0-endoftreatment Plasma, Median (IQR), excluding rat 7): 128000 ng·h/mL | AUC (in vivo [5]; po, 30 mg/kg, AUCdaily_average CSF, Median (IQR), rats with CSF sampled): 3520 ng·h/mL | AUC (in vivo [5]; po, 30 mg/kg, AUCdaily_average Plasma, Geometric mean (Geometric SD factor), excluding rat 7, calculated to compare to clinical data): 20200 ng·h/mL | AUC (in vivo [5]; po, 30 mg/kg, AUCdaily_average Plasma, Median (IQR), all rats): 22800 ng·h/mL | AUC (in vivo [5]; po, 30 mg/kg, AUCdaily_average Plasma, Median (IQR), excluding rat 7): 25600 ng·h/mL | Tmax (in vivo [5]; po, 30 mg/kg, Mean (SD), all rats, calculated to compare to literature values): 1.84 h | Tmax (in vivo [5]; po, 30 mg/kg, Median (IQR), all rats): 1.68 h | half-life (in vivo [5]; po, 30 mg/kg, Half-life, Median (IQR), all rats, NMR in the presence of RTV): 2.55 h | Kp (in vivo [5]; po, NMR CSF concentrations as % of those in plasma, ratio of Cmax or AUC, oral NMR/RTV twice daily for five days): 0.15 to 0.18 | difference in NMR uptake, NMR alone or with RTV ([6]; astrocytes): No significant differences | uptake of NMR by astrocytes [6, 16]: < 2% | Cmax_0-5 days Plasma, Median (IQR) (all rats): 2240 (1860–4030) ng/mL | %CSF Concentrations ≥ 3xEC90Un_adjusted, Median (IQR) (all rats with CSF, 3xEC90 271.5 ng/mL unadjusted for protein binding): 16 (0 -20.5) % and 16% | Cmax_0-5 days Plasma, Geometric mean (Geometric SD factor) (excluding rat 7, calculated to compare to clinical data): 2480 ng/mL | CSF Cmax, median (rats): 410 ng/mL | % Penetration by Cmax CSF/Plasma, Median (IQR) (rats with CSF sampled): 18.11% | Cmax_0-5 days CSF, Median (IQR) (rats with CSF sampled): 410 (200–880) ng/mL | CL (NMR clearance), median from final model [17]: 0.23 L/h | Ka, median from final model [17]: 0.51 h⁻¹ | K23 (rate constant to CSF from central compartment), median [18]: 0.05 h⁻¹ | Vc (volume central compartment), median [18]: 1.05 L | Vcsf (volume cerebrospinal fluid compartment), median [18]: 3.46 L | passive apparent permeability (Papp) [7]: 1.76 ×10⁻⁶ cm/s | plasma EC90Adjusted concentration ([8]; bronchial epithelial cells infected with USA_WAI/2020 isolate): 0.292 µg/mL | plasma EC90Adjusted concentration [8]: 0.585 µM | EC90Un_adjusted ([8]; unadjusted for protein binding): 0.0905 µg/mL (≈ 0.181 µM) | EC90Un_adjusted for CSF ([8]; unadjusted for protein binding): 0.0905 µg/mL | participants with NMR trough concentrations ≥ 3 × EC90 ([9]; EPIC-HR, FDA review): 95% | NMR Ka reported by others [9]: 0.55 h⁻¹ | half-life for NMR in the presence of RTV in humans [9]: 6.05 h | healthy human geometric mean AUC0-12 h ([9]; healthy volunteers): 23010 ng·h/mL | healthy human geometric mean Cmax ([9]; healthy volunteers): 2210 ng/mL | NMR half-life in other oral rat PK studies ([10]; 10 mg/kg oral, rat): 4 h | F literature values estimated in rats for NMR [10]: 34–50% | Tmax in other rodent models, mean [10]: 1.5 h | Brain NMR concentration, Median (IQR) [11]: 23.83 (10.94-46.85) ng/g | Heart NMR concentration, Median (IQR) [11]: 61.72 (24.44-111.5) ng/g | Kidney NMR concentration, Median (IQR) [11]: 97.84 (43.28-297.3) ng/g | Liver NMR concentration, Median (IQR) [11]: 110 (35.65-419.5) ng/g | Lung NMR concentration, Median (IQR) [11]: 67.86 (25.01-111.3) ng/g | PBMC NMR concentration, Median (IQR) [11]: 61.44 (31.7-345.2) ng/mL | brain NMR concentrations compared to 3xEC90 ([11]; adjusted or unadjusted for protein binding): all < 3xEC90 regardless of adjustment for protein binding | 3xEC90 PD value for CSF [12]: 271.5 ng/mL | 3xEC90 PD value for plasma and tissue [12]: 876 ng/mL | 3xEC90 plasma protein adjusted in plasma [12]: 0.876 mg/L | 3xEC90 unadjusted in CSF [12]: 0.2715 mg/L | Kp (in vivo [13]; AR Brain): 0.15 | Kp (in vivo [13]; AR Kidney): 1.71 | Kp (in vivo [13]; AR Liver): 2.71 | Kp (in vivo [13]; AR Lung): 0.89 | Kp (in vivo [13]; AR PBMC): 0.998

CC(C)c1nc(CN(C)C(=O)N[C@H](C(=O)N[C@@H](Cc2ccccc2)C[C@H](O)[C@H](Cc2ccccc2)NC(=O)OCc2cncs2)C(C)C)cs1 [RTV, ritonavir]
RTV uptake in pericytes (mean ± SD) (pericytes [4]; [19]): 202.6 ng/mL | RTV uptake in astrocytes (mean ± SD) [6, 19]: 419.7 ng/mL | neuronal entry of RTV (human neurons [14]): moderate | uptake of RTV by pericytes (uptake/administered) (pericytes [15]): 20.2%
